Consider 14 molecules from patent publication US10023593B2, “ALK kinase inhibitor, and preparation method and uses thereof” (BEIJING PEARL BIOTECHNOLOGY LIMITED LIABILITY COMPANY, priority 2014, dated 2018).

Molecules are shown by their SMILES.

One assay has as its system NCI-H2228 cell line. The experiment in a line: CellTiter-Glo cell proliferation inhibition on NCI-H2228 cell line. Type of assay: cell-based. As to conditions: Homo sapiens, NCI-H2228, 96 h, NCI-H2228 cells, 5000 cells/well, 4 days drug treatment. In outline:
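NCI-H2228 cells, 5000/well in RPMI-1640 + 10% FBS, treated with compounds 2 h after seeding (0.5% DMSO final) for 4 days at 37° C. Viability by CellTiter-Glo luminescence; inhibition relative to DMSO control, IC50 from curve fit.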

The test system of another assay is Karpas-299 cell line. Briefly: CellTiter-Glo cell proliferation inhibition on Karpas-299 cell line. In kind it is cell-based. Conditions: Homo sapiens, 96 h, Karpas-299 cells, 5000 cells/well, 4 days drug treatment. An outline of the steps:
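Karpas-299 cells (5000/well, RPMI-1640 + 10% FBS) pre-incubated 2 h at 37 °C, then treated with compound (0.5% DMSO final) for 4 days. Viability read by CellTiter-Glo luminescence; inhibition calculated against DMSO control, IC50 fitted.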

As for `Cc1cc(Nc2ncc(Cl)c(Nc3cn(C)nc3S(=O)(=O)C(C)C)n2)c(OC2CC2)cc1C1CCN(C(=O)CN(C)C)CC1` [Final product 165, 1-(2-dimethylamino)acetyl-4-(4-(5-chloro-4-(3-(isopropylsulfonyl)-1-methyl-1H-pyrazol-4-amino)pyrimidin-2-amino)-5-cyclopropoxy-2-methylphenyl)piperidine], the results for the IC50 in the assay with NCI-H2228 cell line and in the assay with Karpas-299 cell line were 35 nM and 3 nM, respectively.

As to `Cc1cc(Nc2ncc(Cl)c(Nc3cn(C)nc3S(=O)(=O)C(C)C)n2)c(OC2CC2)cc1C1CCN(C(=O)CC#N)CC1` [Final product 166, 1-cyano acetyl-4-(4-(5-chloro-4-(3-(isopropylsulfonyl)-1-methyl-1H-pyrazol-4-amino)pyrimidin-2-amine)-5-cyclopropoxy-2-methylphenyl)piperidine], the IC50 with NCI-H2228 cell line turned out to be 42 nM; in the assay on Karpas-299 cell line, 8 nM.

With `Cc1cc(Nc2ncc(Cl)c(Nc3cn(C)nc3S(=O)(=O)C(C)C)n2)c(OC2CC2)cc1C1CCN(S(C)(=O)=O)CC1` [Final product 167, 5-chloro-N^2-(2-cyclopropoxy-5-methyl-4-(1-methanesulfonyl-piperidin-4-yl)-phenyl)-N^4-(3-(isopropylsulfonyl)-1-methyl-1H-pyrazol-4-yl)pyrimidin-2,4-diamine], the 50% inhibitory concentration (IC50) with NCI-H2228 cell line is 59 nM; in the assay on Karpas-299 cell line, 18 nM.

On to `Cc1cc(Nc2ncc(Cl)c(Nc3cn(C)nc3S(=O)(=O)C(C)C)n2)c(OC(C)C)cc1C1CN(S(C)(=O)=O)C1` [Final product 168], for which the IC50 in the assay on NCI-H2228 cell line was determined as 440 nM; in the assay on Karpas-299 cell line it was 68 nM.

On to `Cc1cc(Nc2ncc(Cl)c(Nc3cn(C)nc3S(=O)(=O)C(C)C)n2)c(OC2CC2)cc1C1CN(S(C)(=O)=O)C1` [Final product 170], for which the IC50 came out at 381 nM in the assay with NCI-H2228 cell line and 86 nM in the assay with Karpas-299 cell line.

Take `Cc1cc(Nc2ncc(Cl)c(Nc3cn(C)nc3S(=O)(=O)CC(C)C)n2)c(OC2CC2)cc1C1CN(S(C)(=O)=O)C1` [Final product 171]: the IC50 is 251 nM in the assay on NCI-H2228 cell line and 69 nM in the assay on Karpas-299 cell line.

On to `CC(C)S(=O)(=O)c1nn(C)cc1Nc1nc(Nc2ccc(C3CCN(S(C)(=O)=O)C3)cc2OC2CC2)ncc1Cl` (stereo not shown) [Final product 172], for which the figures for the half-maximal inhibitory concentration (IC50) in the assay on NCI-H2228 cell line and in the assay with Karpas-299 cell line were 111 nM and 17 nM, respectively.

Regarding `CC(C)S(=O)(=O)c1nn(C2CC2)cc1Nc1nc(Nc2ccc(C3CCN(S(C)(=O)=O)CC3)cc2OC2CC2)ncc1Cl` [Final product 173], the 50% inhibitory concentration (IC50) with NCI-H2228 cell line came out at 34 nM; in the assay with Karpas-299 cell line it was 19 nM.

As for `CCNC(=O)N1CCC(c2cc(OC3CC3)c(Nc3ncc(Cl)c(Nc4cn(C)nc4S(=O)(=O)C(C)C)n3)cc2C)CC1` [Final product 174, 4-(4-(5-chloro-4-(3-(isopropylsulfonyl)-1-methyl-1H-pyrazol-4-amine)pyrimidin-2-amine)-5-cyclopropoxy-2-methyl-phenyl)-N-ethyl-piperidin-1-carboxamide], the half-maximal inhibitory concentration (IC50) with NCI-H2228 cell line was determined as 82 nM; in the assay on Karpas-299 cell line, 20 nM.

Regarding `CCN(CC)[C@H]1CC[C@H](c2cc(OC3CC3)c(Nc3ncc(Cl)c(Nc4cn(C)nc4S(=O)(=O)CC(C)C)n3)cc2C)CC1` [Final product 178], the IC50 was determined as 101 nM in the assay on NCI-H2228 cell line and 18 nM in the assay on Karpas-299 cell line.

Regarding `Cc1cc(Nc2ncc(Cl)c(Nc3cn(C)nc3S(=O)(=O)CC(C)C)n2)c(OC2CC2)cc1[C@H]1CC[C@H](NC2CC2)CC1` [Final product 180], the figures for the IC50 in the assay on NCI-H2228 cell line and with Karpas-299 cell line were 127 nM and 26 nM, respectively.

In the case of `Cc1cc(Nc2ncc(Cl)c(Nc3cn(C)nc3S(=O)(=O)CC(C)C)n2)c(OC2CC2)cc1[C@H]1CC[C@H](NC(C)C)CC1` [Final product 182], the IC50 is 89 nM in the assay with NCI-H2228 cell line and 15 nM in the assay with Karpas-299 cell line.

On to `Cc1cc(Nc2ncc(Cl)c(Nc3cn(C)nc3S(=O)(=O)C(C)C)n2)c(OC(C)C)cc1[C@H]1CC[C@H](NC(C)C)CC1` [Final product 188], for which the half-maximal inhibitory concentration (IC50) in the assay on NCI-H2228 cell line turned out to be 89 nM; with Karpas-299 cell line, 10 nM.

On to `Cc1cc(Nc2ncc(Cl)c(Nc3cn(C)nc3S(=O)(=O)C(C)C)n2)c(OC2CC2)cc1[C@H]1CC[C@@H](N(C)C)CC1` [Final product 189], for which the IC50 was 76 nM in the assay with NCI-H2228 cell line and 6 nM with Karpas-299 cell line.
